# Data published in patent US6228872A, “Neurotrophic diamide and carbamate agents” (Bristol-Myers Squibb Company, priority 1999, dated 2001).
# Molecular target: FKBP12 (Homo sapiens, UniProt P62942)
# Assay: FKBP12 Rotamase Inhibition Assay
# Type: biochemical
# Settings: Table 1; 1 μM (values marked *); read-out: % inhib. at 1 μM*
# Experimental: FKBP12 Rotamase Inhibition Assay
# The rotamase activity of FKBP-12 was measured by an adaptation of the assay described by Kofron et al. (Biochemistry, 30, pp. 6127-6134 (1991)). The assay was carried out at 4° C. with 1 mg chymotrypsin/mL of assay with succinyl-Ala-Leu-Pro-Phe-p-nitroanilide as the substrate. Chymotrypsin rapidly hydrolyzes the peptide bond on the C-terminal side of the Phe of the trans form of the peptide and releases the chromogenic p-nitroaniline. The rate of the reaction is controlled by the rate of conversion of the cis form of the peptide to the trans-form, the reaction catalyzed by FKBP12. The apparent Ki values for inhibition of the rotamase activity were determined by measuring decreases in the first order rate constant of the reaction catalyzed by FKBP12 as a function of the concentrations of the compounds described herein. Ki is the concentration of the compound that causes 50 percent inhibition of rotamase activity which is indicative of neurite outgrowth activity.
# Chain of FKBP12 (P62942 whole entry, species assumed): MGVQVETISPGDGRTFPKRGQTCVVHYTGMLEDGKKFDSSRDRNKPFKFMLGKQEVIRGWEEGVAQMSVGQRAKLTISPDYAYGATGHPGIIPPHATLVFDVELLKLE
row,inhibition at 1 µM [%],Compound
1,34,"COc1cc(C(F)(F)C(=O)N2CCC[C@H]2COC(=O)N(Cc2ccccc2)Cc2ccccc2)cc(OC)c1OC [Example 24, N-(3,4,5-Trimethoxyphenyl)-difluoroacetyl-L-pyrrolidinylmethyl-[N',N'-dibenzylamino]carbamate]"
2,11,"COc1cc(C(F)(F)C(=O)N2CCC[C@H]2COC(=O)N(CCc2ccccc2)CCc2c[nH]c3ccccc23)cc(OC)c1OC [Example 25, N-(3,4,5-Trimethoxyphenyl)-difluoroacetyl-L-pyrrolidinylmethyi-[N',N'-2-(3-indolyl)ethyl-2-phenylethylamino]carbamate]"

# Same assay, conditions: Table 1; 10 μM; read-out: % inhib. at 10 μM
row,inhibition at 10 µM [%],Compound
1,93,"CC(C)(C)C(=O)C(=O)N1CCC[C@H]1COC(=O)N(CCCc1ccccc1)CCCc1cccnc1 [Example 1, N-Trimethylpyruvyl-L-pyrrolidinylmethyl-[N',N'-3-(3-pyridyl)propyl-3-phenylpropylamino]carbamate]"
2,27,"CC(C)(C)C(=O)C(=O)N1CCC[C@H]1COC(=O)N(Cc1ccccc1)Cc1ccccc1 [Example 2, N-Trimethylpyruvyl-L-pyrrolidinylmethyl-[N',N'-dibenzylamino]carbamate]"
3,39,"CC(C)(C)C(=O)C(=O)N1CCC[C@H]1COC(=O)N(CCc1ccccc1)Cc1ccccc1 [Example 3, N-Trimethylpyruvyl-L-pyrrolidinylmethyl-[N',N'-2-phenylethyl-benzylamino]carbamate]"
4,12,"CC(C)(C)C(=O)C(=O)N1CCC[C@H]1COC(=O)NCc1cccnc1 [Example 4, N-Trimethylpyruvyl-L-pyrrolidinylmethyl-[N'-3-pyridylmethylamino]carbamate]"
5,0,"CC(C)(C)C(=O)C(=O)N1CCC[C@H]1COC(=O)NCCc1ccccc1 [Example 5, N-Trimethylpyruvyl-L-pyrrolidinylmethyl-[N'-2-phenylethylamino]carbamate]"
6,32,"CC(C)(C)C(=O)C(=O)N1CCC[C@H]1COC(=O)NCCCc1ccccc1 [Example 6, N-Trimethylpyruvyl-L-pyrrolidinylmethyl-[N'-3-phenylpropylamino]carbamate]"
7,11,"COc1cc(C(=O)C(=O)N2CCC[C@H]2COC(=O)NCc2cccnc2)cc(OC)c1OC [Example 8, N-(3,4,5-Trimethoxyphenyl)oxalyl-L-pyrrolidinylmethyl-[N'-3-pyridylmethylamino]carbamate]"
8,11,"COc1cc(C(=O)C(=O)N2CCC[C@H]2COC(=O)NCCc2ccccc2)cc(OC)c1OC [Example 9, N-(3,4,5-Trimethoxyphenyl)oxalyl-L-pyrrolidinylmethyl-[N'-2-phenylethylamino]carbamate]"

# Same assay, conditions: Table 2; 1 μM (values marked *); read-out: % inhib. at 1 μM*
row,inhibition at 1 µM [%],Compound
1,11,"COc1cc(C(F)(F)C(=O)N2CCCCC2COC(=O)N(CCCc2cccnc2)Cc2ccccc2)cc(OC)c1OC (racemic) [Example 41, N-(3,4,5-Trimethoxyphenyl)-difluoroacetyl-(±)-piperidinylmethyl-[N',N'-3-(3-pyridyl)propyl-benzylamino]carbamate]"
2,1,"COc1cc(C(F)(F)C(=O)N2CCCCC2COC(=O)N(CCCc2cccnc2)CCc2ccccc2)cc(OC)c1OC (racemic) [Example 42, N-(3,4,5-Trimethoxyphenyl)-difluoroacetyl-(±)-piperidinylmethyl-[N',N'-3-(3-pyridyl)propyl-2-phenylethylamino]carbamate]"
3,0,COc1cc(C(F)(F)C(=O)N2CCCCC2COC(=O)N(CCCCc2ccccc2)CCCc2cccnc2)cc(OC)c1OC (racemic) [Example 43]
4,83,"COc1cc(C(F)(F)C(=O)N2CCC[C@H]2COC(=O)N(CCCCc2ccccc2)CCCCc2cccnc2)cc(OC)c1OC [Example 22, N-(3,4,5-Trimethoxyphenyl)-difluoroacetyl-L-pyrrolidinylmethyl-[N',N'-4-(3-pyridyl)butyl-4-phenylbutylamino]carbamate]"

# Continued, compound first:
row,Compound,inhibition at 1 µM [%]
1,"COc1cc(C(=O)C(=O)N2CCC[C@H]2COC(=O)N(CCCCc2ccccc2)CCCCc2cccnc2)cc(OC)c1OC [Example 10, N-(3,4,5-Trimethoxyphenyl)oxalyl-L-pyrrolidinylmethyl-[N',N'-4-(3-pyridyl)butyl-4-phenylbutylamino]carbamate]",52
2,"COc1cc(C(=O)C(=O)N2CCC[C@H]2COC(=O)N(CCCCc2cccnc2)CCCc2ccccc2)cc(OC)c1OC [Example 14, N-(3,4,5-Trimetboxyphenyl)oxalyl-L-pyrrolidinylmethyl-[N',N'-4-(3-pyridyl)butyl-3-phenylpropylamino]carbamate]",54
3,"COc1cc(C(=O)C(=O)N2CCC[C@H]2COC(=O)N(CCCCc2cccnc2)Cc2ccccc2)cc(OC)c1OC [Example 16, N-(3,4,5-Trimethoxyphenyl)oxalyl-L-pyrrolidinylmethyl-[N',N'-4-(^3-pyridyl)butyl-benzylamino]carbamate]",18

# Same assay, conditions: Table 2; 10 μM; read-out: % inhib. at 10 μM
row,inhibition at 10 µM [%],Compound
1,11,"COc1cc(C(=O)C(=O)N2CCCCC2COC(=O)N(CCCc2ccccc2)CCCc2cccnc2)cc(OC)c1OC (racemic) [Example 19, N-(3,4,5-Trimethoxyphenyl)oxalyl-(±)-piperidinylmethyl-[N',N'-3-(3-pyridyl)-propyl-3-phenylpropylamino]carbamate]"
2,98,"COc1cc(C(F)(F)C(=O)N2CCC[C@H]2COC(=O)N(CCCc2ccccc2)CCCc2cccnc2)cc(OC)c1OC [Example 23, N-(3,4,5-Trimethoxyphenyl)-difluoroacetyl-L-pyrrolidinylmethyl-[N',N'-3-(3-pyridyl)propyl-3-phenylpropylamino]carbamate]"
3,99,"COc1cc(C(F)(F)C(=O)N2CCC[C@H]2COC(=O)N(CCCCc2ccccc2)CCCc2cccnc2)cc(OC)c1OC [Example 26, N-(3,4,5-Trimethoxyphenyl)-difluoroacetyl-L-pyrrolidinylmethyl-[N',N'-3-(3-pyridyl)propyl-4-phenylbutylamino]carbamate]"
4,97,"COc1cc(C(F)(F)C(=O)N2CCC[C@H]2COC(=O)N(CCCc2cccnc2)CCc2ccccc2)cc(OC)c1OC [Example 27, N-(3,4,5-Trimethoxyphenyl)-difluoroacetyl-L-pyrrolidinylmethyl-[N',N'-3-(3-pyridyl)propyl-2-phenylethylamino]carbamate]"

# Second part, the compound before the results:
row,Compound,inhibition at 10 µM [%]
1,"COc1cc(C(=O)C(=O)N2CCC[C@H]2COC(=O)N(CCCc2ccccc2)CCCc2cccnc2)cc(OC)c1OC [Example 7, N-(3,4,5-Trimethoxyphenyl)oxalyl-L-pyrrolidinylmethyl-[N',N'-3-(3-pyridyl)propyl-3-phenylpropylamino]carbamate]",100
2,"COc1cc(C(=O)C(=O)N2CCC[C@H]2COC(=O)N(CCCCc2ccccc2)CCCc2cccnc2)cc(OC)c1OC [Example 11, N-(3,4,5-Trimethoxyphenyl)oxalyl-L-pyrrolidinylmethyl-[N',N'-3-(3-pyridyl)propyl-4-phenylbutylamino]carbamate]",96
3,"COc1cc(C(=O)C(=O)N2CCC[C@H]2COC(=O)N(CCCc2cccnc2)CCc2ccccc2)cc(OC)c1OC [Example 12, N-(3,4,5-Trimethoxyphenyl)oxalyl-L-pyrrolidinylmethyl-[N',N'-3-(3-pyridyl)propyl-2-phenylethylamino]carbamate]",80
4,"COc1cc(C(=O)C(=O)N2CCC[C@H]2COC(=O)N(CCCc2cccnc2)Cc2ccccc2)cc(OC)c1OC [Example 13, N-(3,4,5-Trimethoxyphenyl)oxalyl-L-pyrrolidinylmethyl-[N',N'-3-(3-pyridyl)propyl-benzylamino]carbamate]",79
5,"COc1cc(C(=O)C(=O)N2CCC[C@H]2COC(=O)N(CCCCc2cccnc2)CCc2ccccc2)cc(OC)c1OC [Example 15, N-(3,4,5-Trimethoxyphenyl)oxalyl-L-pyrrolidinylmethyl-[N',N'-4-(3-pyridyl)butyl-2-phenylethylamino]carbamate]",82

# Same assay, conditions: Table 2; apparent Ki, 4° C., substrate succinyl-Ala-Leu-Pro-Phe-p-nitroanilide
row,Ki [nM],Compound
1,271,"COc1cc(C(F)(F)C(=O)N2CCC[C@H]2COC(=O)N(CCCCc2ccccc2)CCCCc2cccnc2)cc(OC)c1OC [Example 22, N-(3,4,5-Trimethoxyphenyl)-difluoroacetyl-L-pyrrolidinylmethyl-[N',N'-4-(3-pyridyl)butyl-4-phenylbutylamino]carbamate]"
2,113,"COc1cc(C(F)(F)C(=O)N2CCC[C@H]2COC(=O)N(CCCc2ccccc2)CCCc2cccnc2)cc(OC)c1OC [Example 23, N-(3,4,5-Trimethoxyphenyl)-difluoroacetyl-L-pyrrolidinylmethyl-[N',N'-3-(3-pyridyl)propyl-3-phenylpropylamino]carbamate]"
3,158,"COc1cc(C(F)(F)C(=O)N2CCC[C@H]2COC(=O)N(CCCCc2ccccc2)CCCc2cccnc2)cc(OC)c1OC [Example 26, N-(3,4,5-Trimethoxyphenyl)-difluoroacetyl-L-pyrrolidinylmethyl-[N',N'-3-(3-pyridyl)propyl-4-phenylbutylamino]carbamate]"
4,234,"COc1cc(C(F)(F)C(=O)N2CCC[C@H]2COC(=O)N(CCCc2cccnc2)CCc2ccccc2)cc(OC)c1OC [Example 27, N-(3,4,5-Trimethoxyphenyl)-difluoroacetyl-L-pyrrolidinylmethyl-[N',N'-3-(3-pyridyl)propyl-2-phenylethylamino]carbamate]"

# The next lines start with the compound.
row,Compound,Ki [nM]
1,"COc1cc(C(=O)C(=O)N2CCC[C@H]2COC(=O)N(CCCc2ccccc2)CCCc2cccnc2)cc(OC)c1OC [Example 7, N-(3,4,5-Trimethoxyphenyl)oxalyl-L-pyrrolidinylmethyl-[N',N'-3-(3-pyridyl)propyl-3-phenylpropylamino]carbamate]",447
2,"COc1cc(C(=O)C(=O)N2CCC[C@H]2COC(=O)N(CCCCc2ccccc2)CCCc2cccnc2)cc(OC)c1OC [Example 11, N-(3,4,5-Trimethoxyphenyl)oxalyl-L-pyrrolidinylmethyl-[N',N'-3-(3-pyridyl)propyl-4-phenylbutylamino]carbamate]",537

# Same assay, conditions: Table 3; 1 μM; read-out: % rotamase inhib. at 1 μM
row,inhibition at 1 µM [%],Compound
1,75,"COc1cccc(CCCN(CCCc2cccnc2)C(=O)OC[C@@H]2CCCN2C(=O)C(=O)c2cc(OC)c(OC)c(OC)c2)c1 [Example 17, N-(3,4,5-Trimethoxyphenyl)oxalyl-L-pyrrolidinylmethyl-[N',N'-3-(3-pyridyl)propyl-3-(3-methoxyphenyl)propylamino]carbamate]"
2,68,"COc1cc(CCCN(CCCc2cccnc2)C(=O)OC[C@@H]2CCCN2C(=O)C(=O)c2cc(OC)c(OC)c(OC)c2)cc(OC)c1OC [Example 18, N-(3,4,5-Trimethoxyphenyl)oxalyl-L-pyrrolidinylmethyl-[N',N'-3-(3-pyridyl)propyl-3-(3,4,5-trimethoxyphenyl)propylamino]carbamate]"

# Same assay, conditions: Table 4; 1 μM; read-out: % rotamase inhib. at 1 μM
row,inhibition at 1 µM [%],Compound
1,0,COc1cc(C(=O)C(=O)N2CCCC[C@H]2CCC(=O)N(CCCc2ccccc2)CCCc2cccnc2)cc(OC)c1OC [Example 20]
2,1,"COc1cc(C(=O)C(=O)N2CCC[C@H]2CCC(=O)N(CCCc2ccccc2)CCCc2cccnc2)cc(OC)c1OC [Example 21, N,N-(3-Phenylpropyl)-3-(3-pyridyl)propyl-2-[(S)-N'-(3,4,5-trimethoxyphenyl)oxalyl-2-pyrrolidinyl]propionamide]"
